Experimental data published in ChEMBL document CHEMBL3856212, “Synthesis, anti-proliferative and genotoxicity studies of 6-chloro-5-(2-substituted-ethyl)-1,3-dihydro-2H-indol-2-ones and 6-chloro-5-(2-chloroethyl)-3-(alkyl/ary-2-ylidene)indolin-2-ones” (Eur J Med Chem, 2016).

Tests used:
[1] = Cytotoxicity against human PC3 cells assessed as growth inhibition after 48 hrs by SRB assay; type: functional; settings: PC-3, 48 h
Mus musculus [2] = species on record: Mus musculus; assay: Genotoxicity in mouse EAC cells at 250 uM after 24 hrs by micronucleus assay (reference value: 3.5 +/- 0.30%); type: toxicity, cell-based; settings: ehrlich
[3] = Cytotoxicity against human SF268 cells assessed as assessed as growth inhibition at 10^-5 M after 48 hrs by SRB assay relative to control; type: functional; settings: SF-268, 48 h, read-out: GI
[4] = Cytotoxicity against human HT-29 cells assessed as growth inhibition after 48 hrs by SRB assay; type: functional; settings: HT-29, 48 h
[5] = Cytotoxicity against human SKOV3 cells assessed as assessed as growth inhibition at 10^-5 M after 48 hrs by SRB assay relative to control; type: functional; settings: SK-OV-3, 48 h, read-out: GI
[6] = Cytotoxicity against human 786-0 cells assessed as growth inhibition after 48 hrs by SRB assay; type: functional; settings: 786-0, 48 h
[7] = Cytotoxicity against human OVCAR3 cells assessed as assessed as growth inhibition at 10^-5 M after 48 hrs by SRB assay relative to control; type: functional; settings: OVCAR-3, 48 h, read-out: GI
[8] = Cytotoxicity against human ACHN cells assessed as growth inhibition after 48 hrs by SRB assay; type: functional
[9] = Cytotoxicity against human M14 cells assessed as assessed as growth inhibition at 10^-5 M after 48 hrs by SRB assay relative to control; type: functional; settings: M14, 48 h, read-out: GI
[10] = Cytotoxicity against human HL-60(TB) cells assessed as growth inhibition after 48 hrs by SRB assay; type: functional; settings: HL-60, 48 h
[11] = Cytotoxicity against human RPMI8226 cells assessed as growth inhibition after 48 hrs by SRB assay; type: functional; settings: RPMI-8226, 48 h
[12] = Cytotoxicity against human MDA-MB-435 cells assessed as growth inhibition after 48 hrs by SRB assay; type: functional; settings: MDA-MB-435, 48 h, read-out: LD50 (the source's name)
[13] = Cytotoxicity against human PC3 cells assessed as assessed as growth inhibition at 10^-5 M after 48 hrs by SRB assay relative to control; type: functional; settings: PC-3, 48 h, read-out: GI
[14] = Cytotoxicity against human Hs 578T cells assessed as assessed as growth inhibition at 10^-5 M after 48 hrs by SRB assay relative to control; type: functional; settings: read-out: GI
[15] = Cytotoxicity against human SNB75 cells assessed as growth inhibition after 48 hrs by SRB assay; type: functional; settings: SNB-75, 48 h
[16] = Cytotoxicity against human SN12C cells assessed as growth inhibition after 48 hrs by SRB assay; type: functional
[17] = Cytotoxicity against human HOP62 cells assessed as growth inhibition after 48 hrs by SRB assay; type: functional; settings: HOP-62, 48 h
[18] = Cytotoxicity against human NCI-H226 cells assessed as assessed as growth inhibition at 10^-5 M after 48 hrs by SRB assay relative to control; type: functional; settings: NCI-H226, 48 h, read-out: GI
[19] = Cytotoxicity against human A498 cells assessed as assessed as growth inhibition at 10^-5 M after 48 hrs by SRB assay relative to control; type: functional; settings: A498, 48 h, read-out: GI
[20] = Cytotoxicity against human SK-MEL-28 cells assessed as assessed as growth inhibition at 10^-5 M after 48 hrs by SRB assay relative to control; type: functional; settings: SK-MEL-28, 48 h, read-out: GI
[21] = Cytotoxicity against human K562 cells assessed as growth inhibition after 48 hrs by SRB assay; type: functional; settings: K562, 48 h
[22] = Induction of apoptosis in mouse EAC cells at 250 uM after 24 hrs by acridine orange dye-based fluorescence microscopy (reference value: 0.66 +/- 0.33%); type: cell-based; settings: ehrlich
[23] = Cytotoxicity against human MDA-MB-435 cells assessed as assessed as growth inhibition at 10^-5 M after 48 hrs by SRB assay relative to control; type: functional; settings: MDA-MB-435, 48 h, read-out: GI
[24] = Cytotoxicity against human SK-MEL-5 cells assessed as growth inhibition after 48 hrs by SRB assay; type: functional; settings: SK-MEL-5, 48 h
[25] = Cytotoxicity against human 786-0 cells assessed as assessed as growth inhibition at 10^-5 M after 48 hrs by SRB assay relative to control; type: functional; settings: 786-0, 48 h, read-out: GI
[26] = Cytotoxicity against human SN12C cells assessed as assessed as growth inhibition at 10^-5 M after 48 hrs by SRB assay relative to control; type: functional; settings: read-out: GI
[27] = Induction of apoptosis in mouse EAC cells at 125 uM after 24 hrs by acridine orange dye-based fluorescence microscopy (reference value: 0.66 +/- 0.33%); type: cell-based; settings: ehrlich
[28] = Cytotoxicity against human SR cells assessed as growth inhibition after 48 hrs by SRB assay; type: functional
[29] = Cytotoxicity against human RXF393 cells assessed as growth inhibition after 48 hrs by SRB assay; type: functional; settings: RXF 393, 48 h
[30] = Cytotoxicity against human EKVX cells assessed as assessed as growth inhibition at 10^-5 M after 48 hrs by SRB assay relative to control; type: functional; settings: read-out: GI
[31] = Cytotoxicity against human SK-MEL-28 cells assessed as growth inhibition after 48 hrs by SRB assay; type: functional; settings: SK-MEL-28, 48 h
Mus musculus [32] = species on record: Mus musculus; assay: Genotoxicity in mouse EAC cells at 500 uM after 24 hrs by micronucleus assay (reference value: 3.5 +/- 0.30%); type: toxicity, cell-based; settings: ehrlich
[33] = Cytotoxicity against human T47D cells assessed as assessed as growth inhibition at 10^-5 M after 48 hrs by SRB assay relative to control; type: functional; settings: read-out: GI
[34] = Cytotoxicity against human UO31 cells assessed as assessed as growth inhibition at 10^-5 M after 48 hrs by SRB assay relative to control; type: functional; settings: UO-31, 48 h, read-out: GI
[35] = Cytotoxicity against human SNB19 cells assessed as growth inhibition after 48 hrs by SRB assay; type: functional; settings: SNB-19, 48 h
[36] = read-out: LD50 (the source's name)

**Q.** With `O=C1Cc2cc(CCN3CCNCC3)c(Cl)cc2N1` as the molecule, how does the GI50 [1] read?
**A.** The GI50 was 9830 nM.

**Q.** And the TGI [1]?
**A.** Its TGI is > 1000 nM.

**Q.** And the CC50 [1, 36]?
**A.** The CC50 was > 1000 nM.

**Q.** And the Activity (Mus musculus [2])?
**A.** The Activity was 4.43%.

**Q.** And the inhibition of growth at 10 µM [3]?
**A.** Its inhibition of growth at 10 µM is 27.9%.

**Q.** And the GI50 [4]?
**A.** Its GI50 is 1000 nM.

**Q.** And the TGI [4]?
**A.** Its TGI is > 1000 nM.

**Q.** And the CC50 [4, 36]?
**A.** Its CC50 is > 1000 nM.

**Q.** And the inhibition of growth at 10 µM [5]?
**A.** Its inhibition of growth at 10 µM is 33.2%.

**Q.** What about the GI50 [6] of the same molecule?
**A.** Its GI50 is 1000 nM.

**Q.** And the TGI [6]?
**A.** Its TGI is > 1000 nM.

**Q.** And the CC50 [6, 36]?
**A.** Its CC50 is > 1000 nM.

**Q.** And the inhibition of growth at 10 µM [7]?
**A.** Its inhibition of growth at 10 µM is 17.2%.

**Q.** What about the GI50 [8] of the same molecule?
**A.** The GI50 was 1000 nM.

**Q.** And the TGI [8]?
**A.** Its TGI is > 1000 nM.

**Q.** What about the CC50 [8, 36] of the same molecule?
**A.** Its CC50 is > 1000 nM.

**Q.** And the inhibition of growth at 10 µM [9]?
**A.** The inhibition of growth at 10 µM was 75.5%.

**Q.** What about the GI50 [10] of the same molecule?
**A.** Its GI50 is 4300 nM.

**Q.** What about the TGI [10] of the same molecule?
**A.** Its TGI is > 1000 nM.

**Q.** And the CC50 [10, 36]?
**A.** Its CC50 is > 1000 nM.

**Q.** What about the GI50 [11] of the same molecule?
**A.** The GI50 was 6030 nM.

**Q.** What about the TGI [11] of the same molecule?
**A.** Its TGI is > 1000 nM.

**Q.** What about the CC50 [11, 36] of the same molecule?
**A.** Its CC50 is > 1000 nM.

**Q.** And the CC50 [12]?
**A.** Its CC50 is > 1000 nM.

**Q.** What about the inhibition of growth at 10 µM [13] of the same molecule?
**A.** Its inhibition of growth at 10 µM is 16.5%.

**Q.** And the inhibition of growth at 10 µM [14]?
**A.** The inhibition of growth at 10 µM was 69.9%.

**Q.** And the GI50 [15]?
**A.** The GI50 was 1560 nM.

**Q.** And the TGI [15]?
**A.** Its TGI is 7540 nM.

**Q.** And the CC50 [15, 36]?
**A.** Its CC50 is > 1000 nM.

**Q.** What about the GI50 [16] of the same molecule?
**A.** Its GI50 is 6000 nM.

**Q.** What about the TGI [16] of the same molecule?
**A.** The TGI was > 1000 nM.

**Q.** What about the CC50 [16, 36] of the same molecule?
**A.** The CC50 was > 1000 nM.

**Q.** What about the GI50 [17] of the same molecule?
**A.** Its GI50 is 1930 nM.

**Q.** What about the TGI [17] of the same molecule?
**A.** The TGI was > 1000 nM.

**Q.** And the CC50 [17, 36]?
**A.** The CC50 was > 1000 nM.

**Q.** And the inhibition of growth at 10 µM [18]?
**A.** Its inhibition of growth at 10 µM is 19.4%.

**Q.** And the inhibition of growth at 10 µM [19]?
**A.** Its inhibition of growth at 10 µM is 33.9%.

**Q.** What about the inhibition of growth at 10 µM [20] of the same molecule?
**A.** Its inhibition of growth at 10 µM is 42.2%.

**Q.** What about the GI50 [21] of the same molecule?
**A.** The GI50 was 6240 nM.

**Q.** What about the TGI [21] of the same molecule?
**A.** Its TGI is > 1000 nM.

**Q.** And the CC50 [21, 36]?
**A.** Its CC50 is > 1000 nM.

**Q.** And the Activity [22]?
**A.** The Activity was 1.06%.

**Q.** What about the inhibition of growth at 10 µM [23] of the same molecule?
**A.** The inhibition of growth at 10 µM was 82%.

**Q.** What about the GI50 [24] of the same molecule?
**A.** Its GI50 is 5330 nM.

**Q.** And the TGI [24]?
**A.** The TGI was > 1000 nM.

**Q.** What about the CC50 [24, 36] of the same molecule?
**A.** Its CC50 is > 1000 nM.

**Q.** And the inhibition of growth at 10 µM [25]?
**A.** The inhibition of growth at 10 µM was 15.3%.

**Q.** What about the inhibition of growth at 10 µM [26] of the same molecule?
**A.** Its inhibition of growth at 10 µM is 52.8%.

**Q.** What about the Activity [27] of the same molecule?
**A.** The Activity was 1%.

**Q.** And the GI50 [28]?
**A.** The GI50 was 6200 nM.

**Q.** What about the TGI [28] of the same molecule?
**A.** Its TGI is > 1000 nM.

**Q.** And the CC50 [28, 36]?
**A.** The CC50 was > 1000 nM.

**Q.** And the GI50 [29]?
**A.** Its GI50 is 6890 nM.

**Q.** And the TGI [29]?
**A.** The TGI was > 1000 nM.

**Q.** And the CC50 [29, 36]?
**A.** Its CC50 is > 1000 nM.

**Q.** What about the inhibition of growth at 10 µM [30] of the same molecule?
**A.** Its inhibition of growth at 10 µM is 75.2%.

**Q.** What about the GI50 [31] of the same molecule?
**A.** The GI50 was 3700 nM.

**Q.** What about the TGI [31] of the same molecule?
**A.** Its TGI is > 1000 nM.

**Q.** And the CC50 [31, 36]?
**A.** Its CC50 is > 1000 nM.

**Q.** And the Activity (Mus musculus [32])?
**A.** Its Activity is 6.26%.

**Q.** What about the inhibition of growth at 10 µM [33] of the same molecule?
**A.** Its inhibition of growth at 10 µM is 17.3%.

**Q.** And the inhibition of growth at 10 µM [34]?
**A.** Its inhibition of growth at 10 µM is 36.8%.

**Q.** And the GI50 [35]?
**A.** The GI50 was 2370 nM.

**Q.** What about the TGI [35] of the same molecule?
**A.** The TGI was > 1000 nM.

**Q.** What about the CC50 [35, 36] of the same molecule?
**A.** Its CC50 is > 1000 nM.
